Test results as given in patent US20260124170A1, “PHARMACEUTICAL COMPOSITION COMPRISING METABOLITE OF ENAVOGLIFLOZIN, AND USE THEREOF” (DAEWOONG PHARMACEUTICAL CO., LTD., priority 2022, published 2026).
Values joined by “and” are separate entries in the source; they are usually repeats but may differ in a detail not shown here. Identical values can stand only once. Like-named read-outs stand apart in the source and are kept apart here.

Assays:
SGLT1 [1] = molecular target: T1, SGLT1 (Homo sapiens, UniProt P13866); assay: Change in SGLT1 inhibition according to drug pretreatment time (CHO-SGLT1); type: cell-based; settings: for IC50: CHO-SGLT1; for Change in SGLT1 inhibition as exposure time increased: pretreatment 0, 1, 2 h, one-way ANOVA
T1 construct: expressed in transfected cells
T1 sequence (P13866 1-664): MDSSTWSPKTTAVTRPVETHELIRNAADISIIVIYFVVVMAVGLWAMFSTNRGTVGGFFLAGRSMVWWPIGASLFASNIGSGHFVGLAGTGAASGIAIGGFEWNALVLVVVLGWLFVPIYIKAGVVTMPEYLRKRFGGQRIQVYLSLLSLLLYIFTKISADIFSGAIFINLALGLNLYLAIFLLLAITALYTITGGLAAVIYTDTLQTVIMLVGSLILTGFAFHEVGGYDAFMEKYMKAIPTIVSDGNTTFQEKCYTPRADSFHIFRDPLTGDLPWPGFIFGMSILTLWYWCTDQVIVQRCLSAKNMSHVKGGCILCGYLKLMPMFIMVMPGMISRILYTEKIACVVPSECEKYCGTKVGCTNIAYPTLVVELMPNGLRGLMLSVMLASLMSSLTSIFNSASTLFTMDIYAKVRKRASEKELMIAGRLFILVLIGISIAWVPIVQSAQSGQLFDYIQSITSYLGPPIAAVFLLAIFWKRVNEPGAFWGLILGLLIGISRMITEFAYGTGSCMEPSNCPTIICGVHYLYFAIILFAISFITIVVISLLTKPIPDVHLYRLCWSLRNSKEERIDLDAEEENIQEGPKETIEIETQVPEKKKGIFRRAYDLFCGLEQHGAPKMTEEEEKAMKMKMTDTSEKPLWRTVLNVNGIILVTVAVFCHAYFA
Text: All data values are expressed as the mean±SD of […].

SGLT1 [2] = molecular target: T1, SGLT1; assay: SGLT1 inhibition with varied substrate AMG concentration (Dixon / L-B plot); type: cell-based; settings: for Inhibition mechanism, SGLT1: CHO-SGLT1, varied AMG concentration; for Ki: from slope of L-B plot, CHO-SGLT1
Method: From these, the inhibition mechanism was confirmed, and the inhibition constant was calculated.

SGLT1 [3] = molecular target: T1, SGLT1; assay: Whole-cell patch clamp glucose current, binding and dissociation, CHO-SGLT1; type: cell-based; settings: for Dissociation degree T1/2, off (s), SGLT1: washout
Method: When SGLT1- and SGLT2-overexpressing cell lines (CHO-SGLT1, CHO-SGLT2 stable cells) were cultured to reach 60% confluency, the cells were treated with 0.05% trypsin to detach the cells from the bottom of the plate, suspended in 200 μL of culture medium, and used at room temperature.
Glucose reabsorption is induced by the Na^+ electrochemical potential gradient in the kidneys via SGLT2, and glucose diffuses across the cell membrane into the blood via glucose transporter 2 (GLUT-2), which enables facilitated glucose transport. While one Na^+ ion is absorbed per glucose molecule through SGLT2, two Nations are absorbed per glucose molecule through SGLT1. Therefore, by varying the composition of the buffer, only the glucose current was recorded, excluding the Na^+ current.
The experiment was conducted as described below.
1) Using a Narishige puller, a glass micropipette was made in two stages of 62.7° C. and 57° C., filled with an internal solution (145 mM CsCl, 5 mM NaCl, 10 mM HEPES, 11 mM ethylene glycol-bis(2-aminoethylether)-N,N,N′,N′-tetraacetic acid (EGTA), pH 7.2), and then inserted into the Ag/AgCl2 electrode of the patch clamp head-stage.
2) SGLT1 or SGLT2 cells were seeded on a chamber which was coated with poly-L-lysine in advance, and then an external solution (150 mM NaCl, 10 mM HEPES, 1 mM CaCl2), 1 mM MgCl2, pH 7.4) was flowed to ensure that the cells were sufficiently submerged. A temperature control device was used to maintain the temperature of the chamber at 36.5±0.5° C.
3) Using a micromanipulator, the glass micropipette was attached to the cell membrane to create a giga-ohm seal, which was then ruptured to detach the cell membrane (whole-cell mode, 3 to 5 MΩ).
4) The cells were fixed at −60 mV (holding potential), and the current [I^total current (Na^+/Glucose current (pA))] was measured in a gap-free data acquisition mode.
5) The external solution was continuously flowed into the chamber containing the cells, and the current (I^total) was recorded for about 30 seconds to 1 minute (stabilization), and then the external solution with added glucose (Na^+/Glucose external) (150 mM NaCl, 10 mM HEPES, 1 mM CaCl2), 1 mM MgCl2, 100 mM glucose, pH 7.4) was flowed to record the glucose current (I^glucose). Then, the cells were exposed to the external solution with added glucose containing one concentration of the compound for two minutes, and the glucose current suppressed by the compound was recorded.
7) After confirming the recovery of the current, the solution was replaced with a sodium-free external solution (Na^+-free external) (150 mM Choline-Cl, 1 mM CaCl2), 1 mM MgCl2, pH 7.4) and the Na^+ current was recorded. After the current was stabilized, the solution was replaced with the external solution to record the current in the resting state when the cells were not stimulated, thereby securing the reliability of the experimental system.
For statistical analysis of data, pCLAMP10.4 (Molecular Devices, LLC, San Jose, CA, USA) or Origin6.0 (OriginLab, Northampton, MA, USA) was used.
The test results were expressed as the mean±SD of the mean. Statistical significance was verified using the nonparametric Kruskal-Wallis test using Statistical Package for the Social Sciences (SPSS) for Windows (version 26.0, IBM Corp., Armonk, NY, USA). The significance level was set at p<0.05.

human hepatocytes = settings: cited from earlier work
[4] = IC50 according to pretreatment time (nM), SGLT1, 1 h, 1 h pretreatment in sodium-free buffer
[5] = IC50 according to pretreatment time (nM), SGLT1, 2 h, 2 h pretreatment in sodium-free buffer
[6] = no pretreatment, read-out: IC50 according to pretreatment time (nM), SGLT1, 0 h

Compound | IC50 (SGLT1 [1]; [4]) [nM] | IC50 (SGLT1 [1]; [5]) [nM] | IC50 (SGLT1 [1]; [6]) [nM] | Change in SGLT1 inhibition as exposure time increased (SGLT1 [1]) | Inhibition mechanism, SGLT1 (SGLT1 [2]) | Ki (SGLT1 [2]) [nM] | Binding affinity T1/2, on (s), SGLT1 (SGLT1 [3]; treatment concentration 5 μM) [s] | Dissociation degree T1/2, off (s), SGLT1 (SGLT1 [3]; treatment concentration 5 μM) | Dissociation degree T1/2, off (s), SGLT1 (SGLT1 [3]; treatment concentration 5 μM, listed as enavogliflozin) [s] | Number of metabolites produced in human hepatocytes (human hepatocytes; M1, M2, M3, U1, U2) | Dissociation from SGLT1, times slower than dapagliflozin (SGLT1 [3]; ratio of T1/2,off) [times] | Dissociation from SGLT1, times slower than enavogliflozin (SGLT1 [3]; ratio of T1/2,off) [times] | Enzymes catalyzing formation of the metabolite (human hepatocytes) | Binding affinity T1/2, on (s), SGLT1 (SGLT1 [3]; treatment concentration 20 μM) [s] | Dissociation degree T1/2, off (s), SGLT1 (SGLT1 [3]; treatment concentration 20 μM)
OC[C@H]1O[C@@H](c2cc(Cc3ccc(C4CC4)cc3)c(Cl)c3c2CCO3)[C@H](O)[C@@H](O)[C@@H]1O [Enavogliflozin, (2S,3R,4R,5S,6R)-2-(7-chloro-6 (4-cyclopropylbenzyl)-2,3-dihydrobenzofuran-4-yl)-6-(hydroxymethyl)tetrahydro-2H-pyran-3,4,5-triol] | 889 ± 238 | 829 ± 194 | 867 ± 163 | did not show any significant change or increase in inhibition | Competitive inhibition | 495 | 11.5 ± 4.2 | 34.9 ± 9.6 s | 34.9 | five |  |  |  |  | 
OC[C@H]1O[C@@H](c2cc(Cc3ccc(C4CC4)cc3)c(Cl)c3c2CC(O)O3)[C@H](O)[C@@H](O)[C@@H]1O (stereo partly drawn) [M1, (2S,3R,4R,5S,6R)-2-(7-chloro-6-(4-cyclopropylbenzyl)-2-hydroxy-2,3-dihydrobenzofuran-4-yl)-6-(hydroxymethyl)tetrahydro-2H-pyran-3,4,5-triol] | 103 ± 22.4 | 76.6 ± 1.2 | 29.2 ± 13.5 | significantly increased | Competitive inhibition | 84.8 | 18.8 ± 4.1 | 59.8 s and 59.8 ± 11.5*^, + s |  |  | 1.96 | 1.7 | CYP3A4 and CYP2C19 |  | 
OC[C@H]1O[C@@H](c2cc(Cc3ccc(C4(O)CC4)cc3)c(Cl)c3c2CCO3)[C@H](O)[C@@H](O)[C@@H]1O [M2, (2S,3R,4R,5S,6R)-2-(7-chloro-6-(4-(1-hydroxycyclopropyl)benzyl)-2,3-dihydrobenzofuran-4-yl)-6-(hydroxymethyl)tetrahydro-2H-pyran-3,4,5-triol] | 1020 ± 225 | 1180 ± 177 | 1080 ± 71 | did not show any significant change or increase in inhibition | Competitive inhibition | 1870 |  |  |  |  |  |  | CYP3A4 and CYP2C19 | 15.7 ± 6.5 | 23.5 s and 23.5 ± 10.4 s
